The values that follow come from US8513229B2, “4-Azetidinyl-1-phenyl-cyclohexane antagonists of CCR2” (Janssen Pharmaceutica NV, priority 2009, dated 2013).

The assay addresses T1, CCR2 (Homo sapiens, UniProt P41597).
T1 construct: host or cells: THP-1 human monocytic cells
T1 sequence (P41597 1-360 isoform P41597-2): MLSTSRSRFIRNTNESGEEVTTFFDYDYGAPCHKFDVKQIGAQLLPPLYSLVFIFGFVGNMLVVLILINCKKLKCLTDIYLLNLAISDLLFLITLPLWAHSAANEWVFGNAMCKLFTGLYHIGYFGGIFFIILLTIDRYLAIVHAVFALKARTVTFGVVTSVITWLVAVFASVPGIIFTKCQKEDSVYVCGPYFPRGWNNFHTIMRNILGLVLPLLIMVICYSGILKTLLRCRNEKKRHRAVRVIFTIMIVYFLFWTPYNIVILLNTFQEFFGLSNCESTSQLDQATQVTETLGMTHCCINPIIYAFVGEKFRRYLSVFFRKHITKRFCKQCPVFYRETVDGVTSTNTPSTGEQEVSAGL
As to the kind of experiment: MCP-1 Receptor Binding Assay in THP-1 Cells. The following applies: 0.5 nM 125I labeled MCP-1, 2 hours at 30° C., read-out: Inhibition of MCP-1 Binding IC50 CCR2 Binding. Here is the method:
MCP-1 Receptor Binding Assay in THP-1 Cells
Human monocytic cell line THP-1 cells were obtained from American Type Culture Collection (Manassas, Va., USA). […] The cell density was maintained […].
1 μM cold MCP-1 was used for nonspecific binding.
As a reminder, the IC50 is the concentration at which inhibition is half-maximal. Consider `O=C(CNC(=O)c1cccc(C(F)(F)F)c1)NC1CN(C2CCC(c3ccc(N4CCCC4)cc3)CC2)C1` (stereo not shown) [Example 13, N-({1-[4-(4-Pyrrolidin-1-yl-phenyl)-cyclohexyl]-azetidin-3-ylcarbamoyl}-methyl)-3-trifluoromethyl-benzamide], for which the IC50 is 61 nM.
Take `COc1cccc(C2(O)CCC(N3CC(NC(=O)CNC(=O)c4cccc(C(F)(F)F)c4)C3)CC2)c1` (single isomer, unassigned) [Example 37a, N-({1-[4-Hydroxy-4-(3-methoxy-phenyl)-cyclohexyl]-azetidin-3-ylcarbamoyl}-methyl)-3-trifluoromethyl-benzamide]: the IC50 is 69 nM.
On to `COc1ccc(C2(O)CCC(N3CC(NC(=O)CNC(=O)c4cccc(C(F)(F)F)c4)C3)CC2)cc1` (single isomer, unassigned) [Example 36a, N-({1-[4-Hydroxy-4-(4-methoxy-phenyl)-cyclohexyl]-azetidin-3-ylcarbamoyl}-methyl)-3-trifluoromethyl-benzamide], for which the IC50 was 21 nM.
Consider `NC1(c2ccccc2)CCC(N2CC(NC(=O)CNC(=O)c3cccc(C(F)(F)F)c3)C2)CC1` (single isomer, unassigned) [Example 84a, N-{[1-(4-Amino-4-phenyl-cyclohexyl)-azetidin-3-ylcarbamoyl]-methyl}-3-trifluoromethyl-benzamide], for which the IC50 came to 240 nM.
The value for `O=C(CNC(=O)c1cccc(C(F)(F)F)c1)NC1CN(C2CCC(c3ccc(C(=O)O)cc3)CC2)C1` (stereo not shown) [Example 10, 4-(4-{3-[2-(3-Trifluoromethyl-benzoylamino)-acetylamino]-azetidin-1-yl}-cyclohexyl)-benzoic acid] was 70 nM; that for `CS(=O)(=O)Nc1ccc(C2CCC(N3CC(NC(=O)CNC(=O)c4cccc(C(F)(F)F)c4)C3)CC2)cc1` (stereo not shown) [Example 16, N-({1-[4-(4-Methanesulfonylamino-phenyl)-cyclohexyl]-azetidin-3-ylcarbamoyl}-methyl)-3-trifluoromethyl-benzamide] was 100 nM; that for `N#Cc1ccc(C2CCC(N3CC(NC(=O)CNC(=O)c4cccc(C(F)(F)F)c4)C3)CC2)cc1` (stereo not shown) [Example 27, N-({1-[4-(4-Cyano-phenyl)-cyclohexyl]-azetidin-3-ylcarbamoyl}-methyl)-3-trifluoromethyl-benzamide] was 86 nM.
Turning to `O=C(CNC(=O)c1cccc(C(F)(F)F)c1)NC1CN(C2CCC(c3ccc(Cc4nn[nH]n4)cc3)CC2)C1` (stereo not shown) [Example 23, N-[(1-{4-[4-(2H-Tetrazol-5-ylmethyl)-phenyl]-cyclohexyl}-azetidin-3-ylcarbamoyl)-methyl]-3-trifluoromethyl-benzamide], the IC50 worked out at 260 nM.
As for `CCc1cccc(C2(O)CCC(N3CC(NC(=O)CNC(=O)c4cccc(C(F)(F)F)c4)C3)CC2)c1` (stereo not shown) [Example 52, N-({1-[4-(3-Ethyl-phenyl)-4-hydroxy-cyclohexyl]-azetidin-3-ylcarbamoyl}-methyl)-3-trifluoromethyl-benzamide], the IC50 was determined as 160 nM.
As to `NC(=O)Cc1ccc(C2CCC(N3CC(NC(=O)CNC(=O)c4cccc(C(F)(F)F)c4)C3)CC2)cc1` (stereo not shown) [Example 26, N-({1-[4-(4-Carbamoylmethyl-phenyl)-cyclohexyl]-azetidin-3-ylcarbamoyl}-methyl)-3-trifluoromethyl-benzamide], the IC50 was found to be 70 nM.
For `CN(C)c1ccc(C2(O)CCC(N3CC(NC(=O)CNC(=O)c4cccc(C(F)(F)F)c4)C3)CC2)cc1` (single isomer, unassigned) [Example 54a, N-({1-[4-(4-Dimethylamino-phenyl)-4-hydroxy-cyclohexyl]-azetidin-3-ylcarbamoyl}-methyl)-3-trifluoromethyl-benzamide], the concentration for half-maximal inhibition (IC50) is 62 nM.
Turning to `O=C(CNC(=O)c1cccc(C(F)(F)F)c1)NC1CN(C2CCC(O)(c3ccc(C(=O)O)cc3)CC2)C1` (stereo not shown) [Example 45, 4-(1-Hydroxy-4-{3-[2-(3-trifluoromethyl-benzoylamino)-acetylamino]-azetidin-1-yl}-cyclohexyl)-benzoic acid], the IC50 came out at 6900 nM.
`O=C(CNC(=O)c1cc(O)cc(C(F)(F)F)c1)NC1CN(C2CCC(c3ccccc3)CC2)C1` (stereo not shown) [Example 81, 3-Hydroxy-N-{[1-(4-phenyl-cyclohexyl)-azetidin-3-ylcarbamoyl]-methyl}-5-trifluoromethyl-benzamide]: the IC50 was 11000 nM.
As to `O=C(CNC(=O)c1cccc(C(F)(F)F)c1)NC1CN(C2CCC(O)(c3ccc4oc(=O)[nH]c4c3)CC2)C1` (single isomer, unassigned) [Example 35a, N-({1-[4-Hydroxy-4-(2-oxo-2,3-dihydro-benzooxazol-5-yl)-cyclohexyl]-azetidin-3-ylcarbamoyl}-methyl)-3-trifluoromethyl-benzamide], the IC50 was determined as 190 nM.
`COc1cccc(C2(N)CCC(N3CC(NC(=O)CNC(=O)c4cccc(C(F)(F)F)c4)C3)CC2)c1` (single isomer, unassigned) [Example 87a, N-({1-[4-Amino-4-(3-methoxy-phenyl)-cyclohexyl]-azetidin-3-ylcarbamoyl}-methyl)-3-trifluoromethyl-benzamide]: the IC50 came out at 330 nM.
Consider `CS(=O)(=O)c1ccc(C2CCC(N3CC(NC(=O)CNC(=O)c4cccc(C(F)(F)F)c4)C3)CC2)cc1` (stereo not shown) [Example 29, N-({1-[4-(4-Methanesulfonyl-phenyl)-cyclohexyl]-azetidin-3-ylcarbamoyl}-methyl)-3-trifluoromethyl-benzamide], for which the IC50 was found to be 280 nM.
Turning to `Cc1ccc(C2(O)CCC(N3CC(NC(=O)CNC(=O)c4cccc(C(F)(F)F)c4)C3)CC2)cc1` (stereo not shown) [Example 59, N-{[1-(4-Hydroxy-4-p-tolyl-cyclohexyl)-azetidin-3-ylcarbamoyl]-methyl}-3-trifluoromethyl-benzamide], the IC50 is 100 nM.
For `O=C(CNC(=O)c1cccc(C(F)(F)F)c1)NC1CN(C2CCC(O)(c3ccc4c(c3)OCC4)CC2)C1` (single isomer, unassigned) [Example 33a, N-({1-[4-(2,3-Dihydro-benzofuran-6-yl)-4-hydroxy-cyclohexyl]-azetidin-3-ylcarbamoyl}-methyl)-3-trifluoromethyl-benzamide] the value was 25 nM; for `COc1ccc(C(F)(F)F)cc1C(=O)NCC(=O)NC1CN(C2CCC(c3ccccc3)CC2)C1` (stereo not shown) [Example 68, 2-Methoxy-N-{[1-(4-phenyl-cyclohexyl)-azetidin-3-ylcarbamoyl]-methyl}-5-trifluoromethyl-benzamide], 740 nM; for `Nc1ccc(C(=O)NCC(=O)NC2CN(C3CCC(c4ccccc4)CC3)C2)cc1C(F)(F)F` (stereo not shown) [Example 74, 4-Amino-N-{[1-(4-phenyl-cyclohexyl)-azetidin-3-ylcarbamoyl]-methyl}-3-trifluoromethyl-benzamide], 46 nM.
For `Cn1cnc2ccc(C3(O)CCC(N4CC(NC(=O)CNC(=O)c5cccc(C(F)(F)F)c5)C4)CC3)cc21` (stereo not shown) [Example 64, N-({1-[4-Hydroxy-4-(3-methyl-3H-benzoimidazol-5-yl)-cyclohexyl]-azetidin-3-ylcarbamoyl}-methyl)-3-trifluoromethyl-benzamide] the value was 110 nM; for `O=C(CNC(=O)c1cc(C(F)(F)F)ccc1F)NC1CN(C2CCC(c3ccccc3)CC2)C1` (stereo not shown) [Example 66, 2-Fluoro-N-{[1-(4-phenyl-cyclohexyl)-azetidin-3-ylcarbamoyl]-methyl}-5-trifluoromethyl-benzamide], 620 nM; for `O=C(CNC(=O)c1cccc(C(F)(F)F)c1)NC1CN(C2CCC(c3ccc(-c4nn[nH]n4)cc3)CC2)C1` (stereo not shown) [Example 28, N-[(1-{4-[4-(2H-Tetrazol-5-yl)-phenyl]-cyclohexyl}-azetidin-3-ylcarbamoyl)-methyl]-3-trifluoromethyl-benzamide], 200 nM.
Take `O=C(CNC(=O)c1cccc(C(F)(F)F)c1)NC1CN(C2CCC(c3ccc(O)cc3)CC2)C1` (single isomer, unassigned) [Example 40a, N-({1-[4-(4-Hydroxy-phenyl)-cyclohexyl]-azetidin-3-ylcarbamoyl}-methyl)-3-trifluoromethyl-benzamide]: the IC50 was found to be 21 nM.
Turning to `CC(C)(C)NC(=O)Nc1ccc(C2CCC(N3CC(NC(=O)CNC(=O)c4cccc(C(F)(F)F)c4)C3)CC2)cc1` (stereo not shown) [Example 18, N-[(1-{4-[4-(3-tert-Butyl-ureido)-phenyl]-cyclohexyl}-azetidin-3-ylcarbamoyl)-methyl]-3-trifluoromethyl-benzamide], the concentration for half-maximal inhibition (IC50) was above 25000 nM.
With `O=C(CNC(=O)c1cccc(C(F)(F)F)c1)NC1CN(C2CCC(O)(c3ccc(F)cc3)CC2)C1` (single isomer, unassigned) [Example 47a, N-({1-[4-(4-Fluoro-phenyl)-4-hydroxy-cyclohexyl]-azetidin-3-ylcarbamoyl}-methyl)-3-trifluoromethyl-benzamide], the IC50 is 206 nM.
Turning to `Nc1ccc(C2CCC(N3CC(NC(=O)CNC(=O)c4cccc(C(F)(F)F)c4)C3)CC2)cc1` (stereo not shown) [Example 15, N-({1-[4-(4-Amino-phenyl)-cyclohexyl]-azetidin-3-ylcarbamoyl}-methyl)-3-trifluoromethyl-benzamide], the IC50 turned out to be 337 nM.
In the case of `O=C(CNC(=O)c1cc(C(F)(F)F)ccc1N1CCCC1)NC1CN(C2CCC(c3ccccc3)CC2)C1` (stereo not shown) [Example 70, N-{[1-(4-Phenyl-cyclohexyl)-azetidin-3-ylcarbamoyl]-methyl}-2-pyrrolidin-1-yl-5-trifluoromethyl-benzamide], the 50% inhibitory concentration (IC50) is 1700 nM.
